Here are results for 14 compounds from patent publication US20230201290A1, “TGF-BETA INHIBITION, AGENTS AND COMPOSITION THEREFOR” (GMP BIOTECHNOLOGY LIMITED, priority 2020, published 2023).

Several values for one entry are separate records, joined by “and”; a condition that tells them apart may be missing. Equal values may be shown once. Read-outs that look alike come from different tables or passages of the source.

One data set relates to C8161 human melanoma. Put plainly: Orthotopic C8161 human melanoma model.
The subject of a further data set is vivax malaria. To be noted: 1975 comparison with chloroquine; cited from earlier work.
The test system of a further data set is falciparum malaria. To be noted: 1975, 3-day regimens; cited from earlier work.
The subject of a further data set is SARS-CoV-2 virus. Conditions: higher values with higher multiplicity of infection; read-out: EC50 values for SARS-CoV-2 virus in the literature; cited from earlier work.
For data set [1] the following is noted: healthy subjects; cited from earlier work.
A further data set has as its system SARS-COV-2 USA_WA1/2020. To be noted: for SI=CC50/EC50: SARS-CoV-2; for SI (CC50/EC50): SARS-CoV-2, Vero 76 cells; for EC50: 50% effective antiviral concentration: SARS-CoV-2 USA_WA1/2020, Vero 76, CPE neutral red, day 5; for Antiviral activity against SARS-CoV-2 (words): Vero 76.
The next data set concerns Vero 76 cells. Conditions: for CC50: 50% cytotoxic concentration of compound without virus added: run alongside SARS-CoV-2 test.

In the case of `CN(C)/N=N/c1[nH]cnc1C(N)=O` [DTIC, dacarbazine], the “Tumor growth suppressed versus control group 1 on day 42” value in the data set on C8161 human melanoma (group 3: 1 mg/kg ip four times/week) was −2%; with C8161 human melanoma (group 4: 10 mg/kg ip four times/week), 78%.
As for `CCN(CC)CCCC(C)Nc1ccnc2cc(Cl)ccc12` (stereo not shown) [chloroquine], the “relapse rate within a month” value with vivax malaria is “no cases of relapse”. For the same compound, the “recrudescence in a month” value in the data set with falciparum malaria is reported as 50%.
The term EC50 denotes the concentration that produces a half-maximal response. With `CCN(CCO)CCCC(C)Nc1ccnc2cc(Cl)ccc12` (stereo not shown) [hydroxychloroquine], the EC50 in the data set with SARS-CoV-2 virus was 0.72 to 17.3 µM.
In the case of `Clc1ccc2c(N3CCN(CCCN4CCN(c5ccnc6cc(Cl)ccc56)CC4)CC3)ccnc2c1` [piperaquine], the “slope of plasma concentration vs placebo-adjusted ΔQTcF” value in data set [1] is listed as 0.047 ms per ng ml-1.
As to “AGCCCTGTATACGAC [FS (13,458-13,472)] (antisense AGCCCTGTAGACGAC; phosphorothioate backbone, further chemistry not given here)”, in the data set with SARS-COV-2 USA_WA1/2020, the “SI=CC50/EC50” value stood at 53, the “SI (CC50/EC50)” value is recorded as 53, the “EC50: 50% effective antiviral concentration” value stood at 5.2 µg/mL and the “Antiviral activity against SARS-CoV-2 (words)” value (shortened to “Antiviral activity”) is reported as “High antiviral activity”. The “Cytotoxicity” value with Vero 76 cells (SARS-CoV-2 test) is reported as “Cytotoxicity was observed”. Also, in the data set on Vero 76 cells, the “CC50: 50% cytotoxic concentration of compound without virus added” value worked out at 430 µg/mL.
“AGCCCTGTATACGAC [FS (13.458-13.274)MOE] (2'-MOE modified, pattern not given here)”: in the data set on SARS-COV-2 USA_WA1/2020, the “SI=CC50/EC50” value is over 40 and the “EC50: 50% effective antiviral concentration” value was found to be 25 µg/mL. The “CC50: 50% cytotoxic concentration of compound without virus added” value in the data set with Vero 76 cells was over 1000 µg/mL.
As usually defined, the CC50 is the concentration giving 50% cytotoxicity. Lower therefore signals greater toxicity to the cells. With “CATTGTAGATGTCAAAAGCC (phosphorothioate backbone, further chemistry not given here) [FS-2a (13539-13558)]”, in the data set with SARS-COV-2 USA_WA1/2020, the “SI=CC50/EC50” value was over 59, the “SI (CC50/EC50)” value is on record as over 59, the “EC50: 50% effective antiviral concentration” value was 17 µg/mL and the “Antiviral activity” value was “High antiviral activity”. In addition, in the data set on Vero 76 cells, the CC50 was over 1000 µg/mL and the “CC50: 50% cytotoxic concentration of compound without virus added” value was over 1000 µg/mL.
For the compound “CGTTTAGAGAACAGATCTAC [TRS2-2 53-72 MOE] (2'-MOE modified, pattern not given here)”, in the data set with SARS-COV-2 USA_WA1/2020, the “SI=CC50/EC50” value is reported as over 16, the “SI (CC50/EC50)” value was over 16 and the “EC50: 50% effective antiviral concentration” value is 62 µg/mL. Further, in the data set with Vero 76 cells, the CC50 is over 1000 µg/mL and the “CC50: 50% cytotoxic concentration of compound without virus added” value was over 1000 µg/mL.
For the compound “CGTTTAGAGAACAGATCTAC [TRS2-2 53-72] (phosphorothioate backbone, further chemistry not given here)”, in the data set on SARS-COV-2 USA_WA1/2020, the “SI=CC50/EC50” value is on record as over 530, the “SI (CC50/EC50)” value is on record as over 530, the “EC50: 50% effective antiviral concentration” value came out at 1.9 µg/mL and the “Antiviral activity” value was “High antiviral activity”. In the data set with Vero 76 cells, the CC50 was over 1000 µg/mL and the “CC50: 50% cytotoxic concentration of compound without virus added” value is over 1000 µg/mL.
As to “CTCCCTCATGGTGGCAGTTGA (chemistry not given here) [RSV, reference compound]”, in the data set on SARS-COV-2 USA_WA1/2020, the “SI=CC50/EC50” value is over 1.6; the “SI (CC50/EC50)” value is recorded as over 1.6; the “EC50: 50% effective antiviral concentration” value was 620.0 µg/mL and 620 µg/mL; the “Antiviral activity” value was “did not demonstrate any suppression”. The compound also had a CC50 in the data set with Vero 76 cells of over 1000 µg/mL.
For “GGTAGGTAAAAACCTAATAT [5TERM (1-20) MOE] (2'-MOE modified, pattern not given here)”, in the data set with SARS-COV-2 USA_WA1/2020, the “SI=CC50/EC50” value came out at 120, the “SI (CC50/EC50)” value worked out at 120, the “EC50: 50% effective antiviral concentration” value turned out to be 4.9 µg/mL and the “Antiviral activity” value was “High antiviral activity”. The “SI (CC50/EC50)” value in the data set on SARS-CoV (Urbani strain) was over 2.6. Besides, in the data set on Vero 76 cells, the “Cytotoxicity” value was “Cytotoxicity was observed” and the “CC50: 50% cytotoxic concentration of compound without virus added” value came to 610 µg/mL. Moreover, in the data set on Vero 76 cells (SARS-CoV-2 test), the “Cytotoxicity” value is given as “Cytotoxicity was observed”.
As for “GGTAGGTAAAAACCTAATAT [5TERM (1-20)] (phosphorothioate backbone, further chemistry not given here)”, in the data set on SARS-COV-2 USA_WA1/2020, the “SI=CC50/EC50” value was over 140, the “SI (CC50/EC50)” value is given as over 140, the “EC50: 50% effective antiviral concentration” value worked out at 7.1 µg/mL and the “Antiviral activity” value is on record as “High antiviral activity”. Also, in the data set with Vero 76 cells, the cytotoxic concentration (CC50) was over 1000 µg/mL and the “CC50: 50% cytotoxic concentration of compound without virus added” value is over 1000 µg/mL.
Take “GTTCGTTTAGAGAACAGATC (phosphorothioate backbone, 5-methyl C, further chemistry not given here) [TRS1 (53-72)]”: in the data set with SARS-COV-2 USA_WA1/2020, the “SI=CC50/EC50” value worked out at 95, the “SI (CC50/EC50)” value worked out at 95, the “EC50: 50% effective antiviral concentration” value was 7.6 µg/mL and the “Antiviral activity” value is recorded as “High antiviral activity”. Moreover, the “Cytotoxicity” value in the data set on Vero 76 cells (SARS-CoV-2 test) is listed as “Cytotoxicity was observed”. The “CC50: 50% cytotoxic concentration of compound without virus added” value with Vero 76 cells turned out to be 720 µg/mL.
For “TAAAGTTCGTTTAGAGAACAG (phosphorothioate backbone, further chemistry not given here) [TRS2 (56-76)]”, in the data set on SARS-COV-2 USA_WA1/2020, the “SI=CC50/EC50” value is listed as over 14, the “SI (CC50/EC50)” value is recorded as over 14 and the “EC50: 50% effective antiviral concentration” value turned out to be 73 µg/mL. Besides, in the data set on SARS-CoV (Urbani strain), the “SI (CC50/EC50)” value is given as over 2.9. Further, in the data set with Vero 76 cells, the CC50 is over 1000 µg/mL, the “Cytotoxicity” value is given as “Cytotoxicity was observed” and the “CC50: 50% cytotoxic concentration of compound without virus added” value was over 1000 µg/mL.
